Data from PMC6101970 (Oncogene, 2018).

Molecular target: ATR/ATRIP (human) (Homo sapiens, UniProt Q13535)
Assay: HTRF kinase assay, GST-cMyc-p53 Ser15 phosphorylation
Type: biochemical

Sequence of ATR/ATRIP (human) (Q13535 whole entry): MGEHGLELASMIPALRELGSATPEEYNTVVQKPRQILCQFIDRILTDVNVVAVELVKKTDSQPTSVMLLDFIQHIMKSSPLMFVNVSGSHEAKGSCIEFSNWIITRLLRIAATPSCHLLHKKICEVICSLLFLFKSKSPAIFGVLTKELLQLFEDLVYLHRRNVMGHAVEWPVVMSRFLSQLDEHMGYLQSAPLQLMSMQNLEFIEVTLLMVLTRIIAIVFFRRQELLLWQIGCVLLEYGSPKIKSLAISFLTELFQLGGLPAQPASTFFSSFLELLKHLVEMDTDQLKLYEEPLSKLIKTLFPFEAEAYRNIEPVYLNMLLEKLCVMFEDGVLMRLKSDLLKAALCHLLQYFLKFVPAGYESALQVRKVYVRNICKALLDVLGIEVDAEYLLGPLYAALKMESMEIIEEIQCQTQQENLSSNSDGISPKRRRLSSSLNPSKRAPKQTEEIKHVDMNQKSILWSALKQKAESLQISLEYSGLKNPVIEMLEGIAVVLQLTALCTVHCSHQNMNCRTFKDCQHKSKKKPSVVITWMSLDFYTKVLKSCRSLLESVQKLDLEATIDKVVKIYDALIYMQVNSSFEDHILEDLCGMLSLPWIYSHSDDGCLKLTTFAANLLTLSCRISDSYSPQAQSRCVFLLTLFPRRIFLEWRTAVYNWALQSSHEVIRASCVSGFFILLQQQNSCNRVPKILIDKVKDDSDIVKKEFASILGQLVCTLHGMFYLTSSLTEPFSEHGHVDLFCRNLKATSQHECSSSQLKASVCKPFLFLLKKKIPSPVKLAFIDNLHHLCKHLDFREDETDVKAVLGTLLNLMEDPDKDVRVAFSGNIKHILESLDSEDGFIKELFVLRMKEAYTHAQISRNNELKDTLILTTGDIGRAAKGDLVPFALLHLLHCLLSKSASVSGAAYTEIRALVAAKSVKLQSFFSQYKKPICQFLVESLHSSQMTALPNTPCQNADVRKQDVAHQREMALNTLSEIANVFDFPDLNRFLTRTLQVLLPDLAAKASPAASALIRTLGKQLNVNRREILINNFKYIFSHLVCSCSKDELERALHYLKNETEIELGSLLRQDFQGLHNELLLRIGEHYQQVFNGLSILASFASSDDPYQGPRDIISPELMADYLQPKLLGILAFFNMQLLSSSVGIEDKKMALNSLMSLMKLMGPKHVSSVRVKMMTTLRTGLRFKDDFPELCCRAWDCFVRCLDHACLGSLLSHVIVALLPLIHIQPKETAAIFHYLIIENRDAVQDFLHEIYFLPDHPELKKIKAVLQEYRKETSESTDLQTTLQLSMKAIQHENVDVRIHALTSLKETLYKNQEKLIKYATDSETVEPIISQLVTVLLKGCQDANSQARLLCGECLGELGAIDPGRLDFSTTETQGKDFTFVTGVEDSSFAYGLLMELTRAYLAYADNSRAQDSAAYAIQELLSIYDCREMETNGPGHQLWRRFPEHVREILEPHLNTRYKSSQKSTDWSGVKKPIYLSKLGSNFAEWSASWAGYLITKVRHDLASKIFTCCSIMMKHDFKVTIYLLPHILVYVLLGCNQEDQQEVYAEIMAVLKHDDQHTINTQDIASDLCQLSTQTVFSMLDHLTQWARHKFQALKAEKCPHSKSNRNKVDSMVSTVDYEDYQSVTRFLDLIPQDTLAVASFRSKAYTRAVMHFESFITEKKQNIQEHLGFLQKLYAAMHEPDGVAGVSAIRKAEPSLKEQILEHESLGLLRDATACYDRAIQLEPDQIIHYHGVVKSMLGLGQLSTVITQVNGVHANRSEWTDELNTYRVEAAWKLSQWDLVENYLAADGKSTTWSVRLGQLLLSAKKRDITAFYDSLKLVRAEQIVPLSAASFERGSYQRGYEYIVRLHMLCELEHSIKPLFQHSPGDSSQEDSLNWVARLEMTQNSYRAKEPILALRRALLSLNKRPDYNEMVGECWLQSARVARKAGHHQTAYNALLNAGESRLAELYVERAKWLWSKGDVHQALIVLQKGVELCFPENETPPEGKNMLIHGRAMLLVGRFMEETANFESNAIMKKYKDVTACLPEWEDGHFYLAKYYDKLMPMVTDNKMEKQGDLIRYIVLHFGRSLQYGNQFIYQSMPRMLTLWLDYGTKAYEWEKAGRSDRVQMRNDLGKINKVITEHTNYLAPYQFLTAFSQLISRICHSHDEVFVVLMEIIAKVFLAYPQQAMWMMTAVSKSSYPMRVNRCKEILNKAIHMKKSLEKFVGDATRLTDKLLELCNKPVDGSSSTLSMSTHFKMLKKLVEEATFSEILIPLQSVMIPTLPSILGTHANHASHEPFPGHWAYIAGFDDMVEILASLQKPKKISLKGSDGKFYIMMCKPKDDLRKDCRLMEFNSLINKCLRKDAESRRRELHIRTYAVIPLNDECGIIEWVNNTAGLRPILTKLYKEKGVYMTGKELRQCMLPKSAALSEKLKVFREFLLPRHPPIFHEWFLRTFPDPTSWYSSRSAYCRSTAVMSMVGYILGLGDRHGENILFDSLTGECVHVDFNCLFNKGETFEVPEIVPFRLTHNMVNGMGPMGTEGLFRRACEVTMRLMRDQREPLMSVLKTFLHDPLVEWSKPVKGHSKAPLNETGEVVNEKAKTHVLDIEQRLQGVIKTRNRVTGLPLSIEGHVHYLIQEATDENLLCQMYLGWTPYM
Sequence of ATR/ATRIP (human) (Q8WXE1 whole entry partner): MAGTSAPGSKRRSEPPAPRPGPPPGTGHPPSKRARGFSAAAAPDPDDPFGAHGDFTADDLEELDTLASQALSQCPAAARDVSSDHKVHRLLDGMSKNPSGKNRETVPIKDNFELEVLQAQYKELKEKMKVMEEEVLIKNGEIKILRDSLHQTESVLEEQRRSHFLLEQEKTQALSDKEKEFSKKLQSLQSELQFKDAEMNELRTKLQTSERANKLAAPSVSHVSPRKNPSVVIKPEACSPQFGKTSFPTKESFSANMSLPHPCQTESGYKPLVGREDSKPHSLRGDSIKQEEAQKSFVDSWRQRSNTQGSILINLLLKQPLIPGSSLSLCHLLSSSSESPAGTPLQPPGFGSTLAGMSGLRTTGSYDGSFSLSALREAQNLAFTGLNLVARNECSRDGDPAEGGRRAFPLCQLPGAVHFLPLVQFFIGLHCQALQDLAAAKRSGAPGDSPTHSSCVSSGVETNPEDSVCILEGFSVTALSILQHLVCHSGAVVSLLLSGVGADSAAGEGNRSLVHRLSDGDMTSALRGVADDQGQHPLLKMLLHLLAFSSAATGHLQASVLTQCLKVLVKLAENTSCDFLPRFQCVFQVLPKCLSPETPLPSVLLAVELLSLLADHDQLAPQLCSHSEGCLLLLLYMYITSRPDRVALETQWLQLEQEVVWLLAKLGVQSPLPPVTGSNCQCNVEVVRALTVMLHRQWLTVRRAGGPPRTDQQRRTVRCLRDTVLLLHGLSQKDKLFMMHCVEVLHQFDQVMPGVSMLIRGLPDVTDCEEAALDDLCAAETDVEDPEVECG

Row | SMILES | IC50 [µM]
1 | COc1nnc2ccc(N3CCC(c4ccc(OCCN5CCN(C)C(=O)[C@H]5C)cc4)CC3)nn12 [AZD5153] | > 10
2 | Cc1sc2c(c1C)C(c1ccc(Cl)cc1)=N[C@@H](CC(=O)OC(C)(C)C)c1nnc(C)n1-2 [JQ1] | > 10
